Test results taken from ChEMBL document CHEMBL5055665, “Discovery of the Triazolo[1,5-a]Pyrimidine-Based Derivative WS-898 as a Highly Efficacious and Orally Bioavailable ABCB1 Inhibitor Capable of Overcoming Multidrug Resistance” (J Med Chem, 2021).

What was measured:
SW-620 [1] = experiment: Reversal of resistance to paclitaxel-induced cytotoxicity in human SW-620/AD300 cells assessed as reduction in paclitaxel IC50 at 5 uM preincubated for 4 hrs followed by paclitaxel addition and measured after 72 hrs by MTT assay (reference value: 4.23 +/- 0.50 uM); assay type: functional, cell-based
SW-620 [2] = experiment: Reversal of resistance to paclitaxel-induced cytotoxicity in human SW-620/AD300 cells assessed as reversal fold at 5 uM preincubated for 4 hrs followed by paclitaxel addition and measured after 72 hrs by MTT assay relative to paclitaxel; assay type: functional; details: time 76 hrs
SW-620 [3] = experiment: Reversal of resistance to paclitaxel-induced cytotoxicity in human SW-620/AD300 cells assessed as reduction in paclitaxel IC50 at 2 uM preincubated for 4 hrs followed by paclitaxel addition and measured after 72 hrs by MTT assay (reference value: 4.23 +/- 0.50 uM); assay type: functional, cell-based
SW-620 [4] = experiment: Reversal of resistance to paclitaxel-induced cytotoxicity in human SW-620/AD300 cells assessed as reversal fold at 2 uM preincubated for 4 hrs followed by paclitaxel addition and measured after 72 hrs by MTT assay relative to paclitaxel; assay type: functional; details: time 76 hrs
SW-620 [5] = experiment: Reversal of resistance to paclitaxel-induced cytotoxicity in human SW-620/AD300 cells assessed as reduction in paclitaxel IC50 at 1 uM preincubated for 4 hrs followed by paclitaxel addition and measured after 72 hrs by MTT assay (reference value: 4.23 +/- 0.50 uM); assay type: functional, cell-based
SW-620 [6] = experiment: Reversal of resistance to paclitaxel-induced cytotoxicity in human SW-620/AD300 cells assessed as reversal fold at 1 uM preincubated for 4 hrs followed by paclitaxel addition and measured after 72 hrs by MTT assay relative to paclitaxel; assay type: functional; details: time 76 hrs
SW-620 [7] = experiment: Reversal of resistance to paclitaxel-induced cytotoxicity in human SW-620/AD300 cells assessed as reduction in paclitaxel IC50 at 6 uM preincubated for 4 hrs followed by paclitaxel addition and measured after 72 hrs by MTT assay (reference value: 4.23 +/- 0.50 uM); assay type: functional, cell-based
SW-620 [8] = experiment: Reversal of resistance to paclitaxel-induced cytotoxicity in human SW-620/AD300 cells assessed as reversal fold at 6 uM preincubated for 4 hrs followed by paclitaxel addition and measured after 72 hrs by MTT assay relative to paclitaxel; assay type: functional; details: time 76 hrs
SW-620 [9] = experiment: Reversal of resistance to paclitaxel-induced cytotoxicity in human SW-620/AD300 cells assessed as reduction in paclitaxel IC50 at 10 uM preincubated for 4 hrs followed by paclitaxel addition and measured after 72 hrs by MTT assay (reference value: 4.23 +/- 0.50 uM); assay type: functional, cell-based
SW-620 [10] = experiment: Reversal of resistance to paclitaxel-induced cytotoxicity in human SW-620/AD300 cells assessed as reversal fold at 10 uM preincubated for 4 hrs followed by paclitaxel addition and measured after 72 hrs by MTT assay relative to paclitaxel; assay type: functional; details: time 76 hrs
SW-620 [11] = experiment: Reversal of resistance to paclitaxel-induced cytotoxicity in human SW-620/AD300 cells assessed as reduction in paclitaxel IC50 at 8 uM preincubated for 4 hrs followed by paclitaxel addition and measured after 72 hrs by MTT assay (reference value: 4.23 +/- 0.50 uM); assay type: functional, cell-based
SW-620 [12] = experiment: Reversal of resistance to paclitaxel-induced cytotoxicity in human SW-620/AD300 cells assessed as reversal fold at 8 uM preincubated for 4 hrs followed by paclitaxel addition and measured after 72 hrs by MTT assay relative to paclitaxel; assay type: functional; details: time 76 hrs

Q: What does the source list for Cc1cc(Nc2ccc(C(=O)/C=C/c3ccc4ccccc4c3)cc2)n2nc(SCc3cccc(C(F)(F)F)c3)nc2n1?
A: IC50 (SW-620 [1]): 2070 nM; fold change (FC) (SW-620 [2]): 2.04

Q: Which IC50 (SW-620 [3]) does the source give for Cc1ccc(/C=C/C(=O)c2ccc(Nc3cc(C)nc4nc(SCc5nc6ccccc6[nH]5)nn34)cc2)cc1 here?
A: The IC50 was 1520 nM.

Q: And the “fold change (FC)” value (SW-620 [4])?
A: The value was 2.78.

Q: Which IC50 (SW-620 [5]) does the source give for Cc1cc(Nc2ccc(C(=O)/C=C/c3ccc4c(c3)OC(F)(F)O4)cc2)n2nc(SCc3nc4ccccc4[nH]3)nc2n1 here?
A: The IC50 was 240 nM.

Q: What about the “fold change (FC)” value (SW-620 [6]) of the same compound?
A: The value was 17.63.

Q: Which results are given for Cc1cc(Nc2ccc(C(=O)/C=C/c3ccc4ccccc4c3)cc2)n2nc(SCCc3ccccc3)nc2n1?
A: IC50 (SW-620 [7]): 670 nM; fold change (FC) (SW-620 [8]): 6.31

Q: Which results are given for Cc1cc(Nc2ccc(C(=O)/C=C/c3ccc(C(F)(F)F)cc3)cc2)n2nc(SCc3nc4ccccc4[nH]3)nc2n1?
A: IC50 (SW-620 [3]): 1850 nM; fold change (FC) (SW-620 [4]): 2.29

Q: How did the IC50 (SW-620 [3]) turn out when Cc1cc(Nc2ccc(C(=O)/C=C/c3cccc(Cl)c3)cc2)n2nc(SCc3nc4ccccc4[nH]3)nc2n1 was run?
A: The IC50 was 400 nM.

Q: What about the “fold change (FC)” value (SW-620 [4]) of the same compound?
A: The value was 10.58.

Q: Which IC50 (SW-620 [3]) does the source give for Cc1cc(Nc2ccc(C(=O)/C=C/c3ccc(Cl)cc3)cc2)n2nc(SCc3nc4ccccc4[nH]3)nc2n1 here?
A: Its IC50 is 230 nM.

Q: What about the “fold change (FC)” value (SW-620 [4]) of the same compound?
A: Its value is 18.39.

Q: With Cc1cc(Nc2ccc(C(=O)/C=C/c3ccc4ccccc4c3)cc2)n2nc(SCc3cccc4ccccc34)nc2n1 as the compound, how does the IC50 (SW-620 [3]) read?
A: Its IC50 is 68 nM.

Q: What about the “fold change (FC)” value (SW-620 [4]) of the same compound?
A: Its value is 62.21.

Q: For Cc1cc(Nc2ccc(C(=O)/C=C/c3cccc(F)c3)cc2)n2nc(SCc3nc4ccccc4[nH]3)nc2n1, which IC50 (SW-620 [3]) is on record?
A: Its IC50 is 590 nM.

Q: What about the “fold change (FC)” value (SW-620 [4]) of the same compound?
A: The value was 7.17.

Q: For Cc1cc(Nc2ccc(C(=O)/C=C/c3ccc4ccccc4c3)cc2)n2nc(SCc3cccc(Br)c3)nc2n1, which IC50 (SW-620 [1]) is on record?
A: Its IC50 is 270 nM.

Q: And the “fold change (FC)” value (SW-620 [2])?
A: The value was 15.67.

Q: For COc1ccc(/C=C/C(=O)c2ccc(Nc3cc(C)nc4nc(SCc5nc6ccccc6[nH]5)nn34)cc2)cc1, which IC50 (SW-620 [3]) is on record?
A: The IC50 was 170 nM.

Q: And the “fold change (FC)” value (SW-620 [4])?
A: The value was 24.88.

Q: For Cc1cc(Nc2ccc(C(=O)/C=C/c3ccc4ccccc4c3)cc2)n2nc(SC(=O)c3csc4ccc(Cl)cc34)nc2n1, which IC50 (SW-620 [3]) is on record?
A: The IC50 was 35 nM.

Q: And the “fold change (FC)” value (SW-620 [4])?
A: The value was 120.86.

Q: Which IC50 (SW-620 [1]) does the source give for Cc1cc(Nc2ccc(C(=O)/C=C/c3ccc4ccccc4c3)cc2)n2nc(SCc3cccc([N+](=O)[O-])c3)nc2n1 here?
A: Its IC50 is 790 nM.

Q: And the “fold change (FC)” value (SW-620 [2])?
A: Its value is 5.35.

Q: How did the IC50 (SW-620 [1]) turn out when Cc1cc(Nc2ccc(C(=O)/C=C/c3ccc4ccccc4c3)cc2)n2nc(SCc3ccccc3C(F)(F)F)nc2n1 was run?
A: Its IC50 is 1240 nM.

Q: What about the “fold change (FC)” value (SW-620 [2]) of the same compound?
A: The value was 3.41.

Q: How did the IC50 (SW-620 [3]) turn out when Cc1cc(Nc2ccc(C(=O)/C=C/c3ccc(F)cc3)cc2)n2nc(SCc3nc4ccccc4[nH]3)nc2n1 was run?
A: Its IC50 is 85 nM.

Q: What about the “fold change (FC)” value (SW-620 [4]) of the same compound?
A: Its value is 49.8.

Q: Which results are given for Cc1cc(Nc2ccc(C(=O)/C=C/c3ccc4ccccc4c3)cc2)n2nc(SCc3ccc(Cl)cc3)nc2n1?
A: IC50 (SW-620 [1]): 570 nM; fold change (FC) (SW-620 [2]): 7.42

Q: CCCSc1nc2nc(C)cc(Nc3ccc(C(=O)/C=C/c4ccc5ccccc5c4)cc3)n2n1 was tested. Which IC50 (SW-620 [9]) did it give?
A: The IC50 was 1070 nM.

Q: And the “fold change (FC)” value (SW-620 [10])?
A: The value was 3.95.

Q: For COc1cc(/C=C/C(=O)c2ccc(Nc3cc(C)nc4nc(SCc5nc6ccccc6[nH]5)nn34)cc2)cc(OC)c1OC, which IC50 (SW-620 [5]) is on record?
A: The IC50 was 75 nM.

Q: And the “fold change (FC)” value (SW-620 [6])?
A: Its value is 56.4.

Q: For Cc1cc(Nc2ccc(C(=O)/C=C/c3ccc4ccccc4c3)cc2)n2nc(SCc3ccccc3Br)nc2n1, which IC50 (SW-620 [1]) is on record?
A: The IC50 was 420 nM.

Q: What about the “fold change (FC)” value (SW-620 [2]) of the same compound?
A: Its value is 10.07.

Q: Which results are given for Cc1cc(Nc2ccc(C(=O)/C=C/c3ccc4ccccc4c3)cc2)n2ncnc2n1?
A: IC50 (SW-620 [9]): 730 nM; fold change (FC) (SW-620 [10]): 5.79

Q: With O=C(/C=C/c1ccc2ccccc2c1)c1ccc(Nc2c3c(nc4ncnn24)CCC3)cc1 as the compound, how does the IC50 (SW-620 [11]) read?
A: The IC50 was 1050 nM.

Q: And the “fold change (FC)” value (SW-620 [12])?
A: The value was 4.03.

Q: What does the source list for C=CCSc1nc2nc(C)cc(Nc3ccc(C(=O)/C=C/c4ccc5ccccc5c4)cc3)n2n1?
A: IC50 (SW-620 [9]): 920 nM; fold change (FC) (SW-620 [10]): 4.6

Q: Which results are given for Cc1cc(Nc2ccc(C(=O)/C=C/c3cccc(Br)n3)cc2)n2nc(SCc3nc4ccccc4[nH]3)nc2n1?
A: IC50 (SW-620 [5]): 58 nM; fold change (FC) (SW-620 [6]): 72.93

Q: Cc1cc(Nc2ccc(C(=O)/C=C/c3ccc4ccccc4c3)cc2)n2nc(SCc3ccccc3)nc2n1 was tested. Which IC50 (SW-620 [1]) did it give?
A: Its IC50 is 300 nM.

Q: What about the “fold change (FC)” value (SW-620 [2]) of the same compound?
A: The value was 14.1.
